In paper PMC8943153, “Inhibition of lung microbiota-derived proapoptotic peptides ameliorates acute exacerbation of pulmonary fibrosis” (Nature Communications, 2022):
Read-outs that look alike come from different tables or passages of the source. No end group written: not given here.

What was measured:
[1] = system: putative serine protease in Staphylococcus nepalensis culture supernatant; type: biochemical
[2] = Half-life of corisin in vitro in a cell culture system; type: in vitro ADME, human; design: Corisin concentration in cell culture medium: unit not given here; conditions: enzyme immunoassay; for Corisin concentration in cell culture medium: A549 culture, 10 µg/ml added
Protocol: We assessed the half-life of corisin in a cell culture system to determine the elimination rate of corisin from a solution in a cell culture system. A549 alveolar epithelial cells were cultured up to confluence in DMEM supplemented with 10% heat-inactivated FBS. The cells were then washed and cultured in FBS (−) DMEM. Corisin was then inoculated into the cell culture medium at a final concentration of 10 µg/ml, and the cell supernatant was sampled after 0, 1, 3, 6, 12, and 24 h. The concentration of corisin was measured by enzyme immunoassay, and the half-life of corisin was determined.

[3] = 0.1, 0.3, 1 mM, 0.5, 1 and 2 h at 37 °C, silver staining

## CC(C)C[C@H](NC(=O)[C@H]1O[C@@H]1C(=O)O)C(=O)NCCCCN=C(N)N [E-64]
[1]; 0h, 3uM
  Inhibition: 0
[1]; 0h, 10uM
  Inhibition: 0
[1]; 0h, 30uM
  Inhibition: 0
[1]; [3]
  Effect on transglycosylase degradation by S. nepalensis culture supernatant: neither E-64 nor EDTA suppressed
[1]; 0.5h, 3uM
  Inhibition: 0
[1]; 0.5h, 10uM
  Inhibition: 0
[1]; 0.5h, 30uM
  Inhibition: 0
[1]; 1h, 3uM
  Inhibition: 0
[1]; 1h, 10uM
  Inhibition: 0
[1]; 1h, 30uM
  Inhibition: 0.2
[1]; 2h, 3uM
  Inhibition: 0
[1]; 2h, 10uM
  Inhibition: 0
[1]; 2h, 30uM
  Inhibition: 0.03

## O=C(O)CN(CCN(CC(=O)O)CC(=O)O)CC(=O)O [EDTA, ethylenediaminetetraacetic acid]
[1]
  Effect on transglycosylase degradation by S. nepalensis culture supernatant: neither E-64 nor EDTA suppressed

## Cl.NCCc1ccc(S(=O)(=O)F)cc1 [pefabloc SC]
[1]; [3]
  Effect on transglycosylase degradation by S. nepalensis culture supernatant: suppress transglycosylase degradation

## Cl.NCCc1ccc(S(=O)(=O)F)cc1 [pefabloc]
[1]; 0h, 0.1mM
  Inhibition: 0
[1]; 0h, 0.3mM
  Inhibition: 0
[1]; 0h, 1mM
  Inhibition: 0
[1]; 0.5h, 0.1mM
  Inhibition: 53.32
[1]; 0.5h, 0.3mM
  Inhibition: 87.64
[1]; 0.5h, 1mM
  Inhibition: 98.7
[1]; 1h, 0.1mM
  Inhibition: 56.04
[1]; 1h, 0.3mM
  Inhibition: 90.52
[1]; 1h, 1mM
  Inhibition: 98.55
[1]; 2h, 0.1mM
  Inhibition: 52.92
[1]; 2h, 0.3mM
  Inhibition: 90.94
[1]; 2h, 1mM
  Inhibition: 99.04

## IVMPESSGNPNAVNPAGYR [corisin]
[2]; 10 µg/ml in FBS(-) DMEM on A549 cells
  Half-life in solution in a human alveolar cell culture system: < 60 min
[2]; time 1 h
  Corisin concentration in cell culture medium: 3931.8
[2]; time 3 h
  Corisin concentration in cell culture medium: 2007.7
[2]; time 6 h
  Corisin concentration in cell culture medium: 1433.4
[2]; time 12 h
  Corisin concentration in cell culture medium: 1485.2
[2]; time 24 h
  Corisin concentration in cell culture medium: 1357.9
[2]; human, 10 µg/ml in FBS(-) DMEM on confluent A549 cells, sampled 0-24 h, exponential decay model, n = 4 per time point, read-out: Half-life in A549 epithelial cell culture medium (converted)
  half-life at 10 µg/ml: 42 min
